Molecules are shown by their SMILES.

The assay relates to H2170 cells. Nature of the assay: Drug treatment response of lung cancer cell line H2170 (IC50 concentration level of Table 1). It is filed as cell-based. As to conditions: Homo sapiens, NCI-H2170; LUSC cell line H2170; concentration level annotated IC50* in Table 1; 24 hours treatment; read-out: IC50 (half-maximal inhibitory concentration of drug). The method, then:
Morphological profiling is emerging as a promising technique in drug screening; however, the presence of batch effects poses a significant challenge. In this context, the efficacy of the CytoMAD approach is evaluated using label-free drug response assays conducted on LUSC (H2170) cells treated with docetaxel, afatinib, and gemcitabine at various concentrations across two distinct batches. This comprises 18 distinct drug treatment conditions, encompassing five concentration levels and one negative control. During the CytoMAD training process, only batch information and drug types are provided, withholding specific drug concentration data. This allows for the evaluation of the model's self-supervised capability to capture morphological changes across concentrations.
Comparative analysis of phenotypic distributions across different drug treatments (representing different colored violins) showcases preserved patterns before and after the implementation of CytoMAD, confirming its capacity to retain cellular information. To further verify the cellular phenotypic preservation capacity of CytoMAD model, treatment response experiment is conducted with lung cancer cell line H2170. In this experiment, H2170 are treated with drugs of different mechanism of action (MoA) (i.e. Docetaxel as microtubule stabilizing agent, Afatinib as tyrosine kinase inhibitor in targeted therapy and Gemcitabine as antimetabolite), each with 5 concentration levels and a negative control with dimethyl sulfoxide (DMSO) for 24 hours as listed in Table 1. They are imaged using multi-ATOM for single-cell BF and QPI images on 6 days, forming 2 batches with ~100,000 cells per drug. Basically, this dataset consists of 2 batches of data, with each batch containing 3 different drug treatments and each treatment comprising 6 different concentration conditions.

With `CN(C)C/C=C/C(=O)Nc1cc2c(Nc3ccc(F)c(Cl)c3)ncnc2cc1O[C@H]1CCOC1` [Afatinib], the IC50 came to 19 nM.

As to `CC(=O)O[C@@]12CO[C@@H]1C[C@H](O)[C@@]1(C)C(=O)[C@H](O)C3=C(C)[C@@H](OC(=O)[C@H](O)[C@@H](NC(=O)OC(C)(C)C)c4ccccc4)C[C@@](O)([C@@H](OC(=O)c4ccccc4)[C@H]21)C3(C)C` [Docetaxel], the IC50 was determined as 3.76 nM.

As to `Nc1ccn([C@@H]2O[C@H](CO)[C@@H](O)C2(F)F)c(=O)n1` [Gemcitabine], the IC50 came to 7.51 nM.

(Values after patent US12694522B2, “Systems and methods of correcting batch effect in biological images” (The University of Hong Kong, priority 2022, dated 2026).)
